Reference: PMC7744152, “New potent steroid sulphatase inhibitors based on 6-(1-phenyl-1H-1,2,3-triazol-4-yl)naphthalen-2-yl sulphamate derivatives” (Journal of Enzyme Inhibition and Medicinal Chemistry, 2020)

Columns and labels:
Type in all cases: biochemical
steroid sulphatase (STS) [1] = target: T1, steroid sulphatase (STS) (Homo sapiens, UniProt P08842); assay: radiolabelled [3H] oestrone sulphate hydrolysis, purified placental STS, […] inhibitor
T1 construct: STS enzyme extracted from human placenta and purified
T1 sequence (P08842 22-583): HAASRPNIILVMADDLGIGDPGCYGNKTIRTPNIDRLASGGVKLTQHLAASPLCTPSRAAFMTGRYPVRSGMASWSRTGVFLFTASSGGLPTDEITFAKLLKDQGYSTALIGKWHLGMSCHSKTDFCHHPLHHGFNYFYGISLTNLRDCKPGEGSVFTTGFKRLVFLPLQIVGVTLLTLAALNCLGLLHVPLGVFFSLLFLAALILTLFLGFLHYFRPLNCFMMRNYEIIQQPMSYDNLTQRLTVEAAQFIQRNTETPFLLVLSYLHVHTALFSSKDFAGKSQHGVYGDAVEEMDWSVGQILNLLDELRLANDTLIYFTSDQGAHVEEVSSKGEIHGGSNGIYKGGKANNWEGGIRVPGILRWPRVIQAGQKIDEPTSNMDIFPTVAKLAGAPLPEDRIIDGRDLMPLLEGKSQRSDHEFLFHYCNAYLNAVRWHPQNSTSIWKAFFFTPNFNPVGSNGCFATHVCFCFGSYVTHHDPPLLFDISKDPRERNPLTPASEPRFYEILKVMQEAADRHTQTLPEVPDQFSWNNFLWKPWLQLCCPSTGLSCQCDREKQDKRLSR

steroid sulphatase (STS) [2] = target: T1, steroid sulphatase (STS); assay: radiolabelled [3H] oestrone sulphate hydrolysis, purified placental STS, […] inhibitor (also MCF-7 cell IC50 […])
steroid sulphatase (STS) [3] = target: T1, steroid sulphatase (STS); assay: as above; remark: listed apart in the source
steroid sulphatase (STS) [4] = target: T1, steroid sulphatase (STS); assay: as above; remark: listed apart in the source

SMILES | remaining activity at 0.5 µM (steroid sulphatase (STS) [1]) | further results
NS(=O)(=O)Oc1ccc2cc(-c3cn(-c4cccc(F)c4)nn3)ccc2c1 [3B, 6-(1-(3-Fluorophenyl)-1H-1,2,3-triazol-4-yl)naphthalen-2-yl sulphamate] | 17.4% | –
NS(=O)(=O)Oc1ccc2cc(-c3cn(-c4cccc(Cl)c4)nn3)ccc2c1 [3C, 6-(1-(3-Chlorophenyl)-1H-1,2,3-triazol-4-yl)naphthalen-2-yl sulphamate] | 9.66% | –
NS(=O)(=O)Oc1ccc2cc(-c3cn(-c4cccc(Br)c4)nn3)ccc2c1 [3D, 6-(1-(3-Bromophenyl)-1H-1,2,3-triazol-4-yl)naphthalen-2-yl sulphamate] | 9.62% | –
NS(=O)(=O)Oc1ccc2cc(-c3cn(-c4ccc(Cl)cc4)nn3)ccc2c1 [3F, 6-(1-(4-Chlorophenyl)-1H-1,2,3-triazol-4-yl)naphthalen-2-yl sulphamate] | 18.7% | –
NS(=O)(=O)Oc1ccc2cc(-c3cn(-c4ccc(Br)cc4)nn3)ccc2c1 [3G, 6-(1-(4-Bromophenyl)-1H-1,2,3-triazol-4-yl)naphthalen-2-yl sulphamate] | 23.1% | –
NS(=O)(=O)Oc1ccc2cc(-c3cn(-c4ccccc4Cl)nn3)ccc2c1 [3I] | – | remaining activity at 0.5 µM (steroid sulphatase (STS) [2]): 16.9%
NS(=O)(=O)Oc1ccc2cc(-c3cn(-c4ccccc4Br)nn3)ccc2c1 [3J, 6-(1-(2-Bromophenyl)-1H-1,2,3-triazol-4-yl)naphthalen-2-yl sulphamate] | 15.9% | –
NS(=O)(=O)Oc1ccc2cc(-c3cn(-c4cc(F)cc(F)c4)nn3)ccc2c1 [3K, 6-(1-(3,5-Difluorophenyl)-1H-1,2,3-triazol-4-yl)naphthalen-2-yl sulphamate] | – | remaining activity at 0.5 µM (steroid sulphatase (STS) [3]): 14%
NS(=O)(=O)Oc1ccc2cc(-c3cn(-c4ccc(F)c(F)c4F)nn3)ccc2c1 [3L, 6-(1-(2,3,4-Trifluorophenyl)-1H-1,2,3-triazol-4-yl)naphthalen-2-yl sulphamate] | – | remaining activity at 0.5 µM (steroid sulphatase (STS) [4]): 7.98%
